Laboratory results published in publication PMC9267128, “New 2-[(4-Amino-6-N-substituted-1,3,5-triazin-2-yl)methylthio]-N-(imidazolidin-2-ylidene)-4-chloro-5-methylbenzenesulfonamide Derivatives, Design, Synthesis and Anticancer Evaluation” (International Journal of Molecular Sciences, 2022).

Experiments:
[1] = system: A2780 (ovarian carcinoma cell line); assay: MTT assay, wild-type p53 ovarian cancer cells A2780; type: cell-based; conditions: Homo sapiens, A2780, 72 h of incubation
Experimental: (§1) Thus, the ability of the selected compounds to exert cytotoxic activity toward cell lines harboring mutant p53 was examined. Compounds displaying a high selectivity index (Table 6) were selected for the analysis of their activity toward ovarian and breast cancer cells with wild-type p53 (A2780, MCF-7) and mutant p53 (SKOV-3, T47D).
(§2) Cell viability was examined using the MTT [3-(4,5-dimethylthiazol-2-yl)-2,5-diphenyltetrazolium bromide] assay. Cells were seeded in 96-well plates at a density of 3 × 10^3 cells/well and treated for 72 h with the tested compounds in the concentration range of 1–100 µM. Then, MTT (0.5 mg/mL) was added to the medium and cells were further incubated for 2 h at 37 °C. In the next stage, cells were lysed with DMSO and the absorbance of the formazan solution was measured at 550 nm with a plate reader (1420 multilabel counter, Victor, Jügesheim, Germany). The experiment was performed in triplicate. Values are expressed as the mean ± SD of at least three independent experiments. Cisplatin was used as a positive control.
(§3) Compounds 48, 62, 134, 138 and 140 were further examined toward MCF7 (breast cancer cell line, ATCC, HTB-22), T47D (breast cancer cell line, DSMZ ACC 739), A2780 (ovarian carcinoma cell line, ECACC, 93112519), and SKOV3 (ovarian carcinoma cell line, ATCC, HTB-77) cells. Cells were grown in Dulbecco’s Modified Eagle Medium (DMEM) supplemented with 10% fetal bovine serum (Thermo Fisher Scientific).

MCF-7 cells = assay: Apoptosis analysis (Annexin V-PE/7-AAD flow cytometry) in MCF-7 cells; type: cell-based, human; conditions: MCF-7, 5, 10 and 25 µM, 72 h
Experimental: To confirm this, MCF-7 cells were treated with a concentration range of compounds 140 and 48 for 72 h. Flow cytometric analysis was performed with Annexin V-PE staining. […] The increase in apoptotic cells was mainly evident in the late apoptotic stage (upper right quadrant) (Figure 9).
Levels of apoptosis were measured by flow cytometry using the Annexin V-PE Apoptosis Detection Kit I (BD Biosciences, Belgium) according to the manufacturer’s instructions. Apoptosis was assessed after a 72 h treatment of MCF7 and T47D cells with compounds 48 and 140 in the concentrations of 5, 10 and 25 µM. Proceeding cell treatment, cells were collected, washed with PBS and stained with Annexin V-phycoerythrin (PE) and 7-amino-actinomycin (7-AAD) in Annexin V binding buffer for 15 min at RT in the dark. After staining, cells were diluted in Annexin V binding buffer and analyzed on a BD FACSCalibur flow cytometer (BD Biosciences). At total of 10^4 cells were analyzed from each sample and data were analyzed with Flowing software (version 2.5).

[2] = system: T47D (breast cancer cell line); assay: MTT assay, mutant p53 breast cancer cells T47D; type: cell-based; conditions: Homo sapiens, T47D, 72 h of incubation
Experimental: as §1, §2, §3

MDM2-p53 interactions = assay: Western blot of MDM2 and p53 protein levels in MCF-7 cells; type: cell-based, human; conditions: 4 µM and 10 µM, 24-h incubation
Experimental: Thus, the effects of the examined compounds on the inhibition of MDM2-p53 interactions were examined. MDM2 and p53 protein levels were determined with Western blot analysis after the treatment of MCF-7 cells with compounds selected for their high selectivity index (48, 62, 134, 138, and 140). Compounds were examined at different concentrations (4 µM and 10 µM) following a 24-h incubation (Figure 7).
Proteins were transferred to an Immobilon-P PVDF membrane (Merck Millipore, Burlington, MA, USA). The membranes were incubated for 1 h using 5% low-fat milk solution in 1× TBS (50 mM Tris-Cl, pH 7.5, 150 mM NaCl) as a blocking buffer and then overnight at 4 °C in the same blocking solution containing one of the following antibodies: anti-MDM2 (rabbit, Sigma-Aldrich AB-166, Burlington, MA, USA), anti-p53 (rabbit, Sigma-Aldrich S15) or α-tubulin (rabbit, 11H10, Cell Signaling, Danvers, MA, USA). After washing (3 × 10 min in TBS), membranes were incubated for 2 h in room temperature with the adequate HRP-conjugated secondary antibody: goat anti-rabbit IgG (1:5000, Abcam, Cambridge, UK; cat. 97051). Membranes were developed using an HRP detection kit WesternBright Quantum (Advansta, San Jose, CA, USA; cat. K-12042).

MCF-7 (breast cancer) = assay: MTT cell viability assay, MCF-7; type: cell-based, human; conditions: for IC50: Homo sapiens, MCF7, 72 h, MTT assay, 72 h of incubation; for Selectivity Index (SI) MCF-7: IC50 value toward HaCaT cells/IC50 value toward MCF-7
Procedure, shortened: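 Cells in DMEM with 10% FBS, 3 × 10^3 per well, exposed to compounds at 1–100 µM for 72 h at 37 °C. MTT at 0.5 mg/mL for 2 h, formazan dissolved in DMSO and read at 550 nm. Mean ± SD of at least three independent experiments, each in triplicate.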

| IC50 [1] [µM] | IC50 [2] [µM] | IC50 (MCF-7 (breast cancer)) [µM] | SMILES | apoptotic population of cells (Annexin V-PE) (MCF-7 cells) | MDM2 and p53 protein levels (MDM2-p53 interactions) | Selectivity Index (SI) MCF-7 (MCF-7 (breast cancer)) |
| --- | --- | --- | --- | --- | --- | --- |
| 4.5 ± 0.1 | 5.3 ± 0.1 | 10 ± 0.2 | Cc1cc(S(=O)(=O)N=C2NCCN2Cc2ccc(C(F)(F)F)cc2)c(SCc2nc(N)nc(N3CCN(Cc4ccccc4)CC3)n2)cc1Cl [Compound 140] | concentration-dependent increase | no changes | 2.2 |
| 4 ± 0.1 | 4.8 ± 0.1 | 7 ± 0.2 | Cc1cc(S(=O)(=O)N=C2NCCN2Cc2ccccc2)c(SCc2nc(N)nc(N3CCc4ccccc43)n2)cc1Cl [Compound 48] | concentration-dependent increase | no changes | 4.7 |
